In PMC9688344, “[^225Ac]Ac-SibuDAB for Targeted Alpha Therapy of Prostate Cancer: Preclinical Evaluation and Comparison with [^225Ac]Ac-PSMA-617” (Cancers, 2022):

Columns and labels:
patients = tested on: patients; design: method as in PMID 33293081; conditions: clinical study; cited from earlier work
BALB/c nude mice = assay: Comparison of treated (cured) therapy mice with healthy mice at study end; format: in vivo
Description: After administration of the radioligands, the mice were monitored over 8 weeks using the same measures as previously published by Umbricht et al.. The relative body mass was defined as [BMx/BM0], where BMx is the body mass in grams at a given Day x and BM0 is the body mass in grams at Day 0. The tumor dimension was determined by measuring the longest tumor axis (L) and its perpendicular axis (W) with a digital caliper. The tumor volume (V) was calculated according to the equation [V = 0.5 × (LW^2)]. The relative tumor volume was defined as [TVx/TV0], where TVx is the tumor volume in mm^3 at a given Day x, and TV0 is the tumor volume in mm^3 at Day 0. Endpoint criteria that required euthanasia were defined as (i) body mass loss of >15%, (ii) a tumor volume of >800 mm^3, (iii) a combination of body mass loss of >10% and a tumor volume of >700 mm^3 or, (iv) signs of unease and pain or a combination thereof using a scoring system as previously reported. The median survival of mice of each group was assessed with Kaplan–Meier curves. Potential early side effects for mice that survived until study end were determined based on blood chemistry and organ-to-brain mass ratios on Day 56 by comparison to values obtained from an additional group of therapy-naïve mice (n = 4) without tumors but of the same age (Supplementary Material: Section S9). […]
10. Comparison of [225Ac]Ac-SibuDAB-Treated Mice with Healthy Mice at Study End Purpose: To investigate whether a successful tumor treatment with [225Ac]Ac- […]
compared to treatment-naïve, non-tumor-bearing mice on Day 56.
Methods: In order to assess the tolerability of the treatment, the body mass, the organ masses and organ-to-brain mass ratios as well as blood chemistry of the cured mice were compared to those of healthy, non-tumor-bearing BALB/c nude mice on Day 56.
Results: Survival: Targeted alpha therapy using [225Ac]Ac-SibuDAB was very effec-tive and all mice treated with 5 kBq, 10 kBq or 30 kBq of this radioligand survived until […]
Body Mass: The body mass of mice that were effectively treated with [225Ac]Ac-SibuDAB was in the same range as for healthy, non-tumor-bearing control mice at the end of the study on Day 56 (p>0.05) ( Table S11).

[1] = tested on: PSMA-negative PC-3 flu tumors; assay: Therapy study in PC-3 flu tumor-bearing mice; format: in vivo, BALB/c nude mice; conditions: 30 kBq
Description: Five days after subcutaneous inoculation of four groups of mice with either PC-3 PIP or PC-3 flu tumor cells on the right shoulder (4 × 10^6 cells in 100 μL HBSS), the mice were intravenously injected with either vehicle only (saline with 0.05% BSA, n = 6 and n = 4, respectively) or with 30 kBq [^225Ac]Ac-SibuDAB (1 nmol per mouse; n = 4 per group) diluted in vehicle (Table 1).
After administration of the radioligands, the mice were monitored over 8 weeks using the same measures as previously published by Umbricht et al.. The relative body mass was defined as [BMx/BM0], where BMx is the body mass in grams at a given Day x and BM0 is the body mass in grams at Day 0. The tumor dimension was determined by measuring the longest tumor axis (L) and its perpendicular axis (W) with a digital caliper. The tumor volume (V) was calculated according to the equation [V = 0.5 × (LW^2)]. The relative tumor volume was defined as [TVx/TV0], where TVx is the tumor volume in mm^3 at a given Day x, and TV0 is the tumor volume in mm^3 at Day 0. Endpoint criteria that required euthanasia were defined as (i) body mass loss of >15%, (ii) a tumor volume of >800 mm^3, (iii) a combination of body mass loss of >10% and a tumor volume of >700 mm^3 or, (iv) signs of unease and pain or a combination thereof using a scoring system as previously reported. The median survival of mice of each group was assessed with Kaplan–Meier curves. Potential early side effects for mice that survived until study end were determined based on blood chemistry and organ-to-brain mass ratios on Day 56 by comparison to values obtained from an additional group of therapy-naïve mice (n = 4) without tumors but of the same age (Supplementary Material: Section S9).

## O=C([O-])CN1CCN(CC(=O)[O-])CCN(CC(=O)NCC2CCC(C(=O)NC(Cc3ccc4ccccc4c3)C(=O)NCCCCC(NC(=O)NC(CCC(=O)O)C(=O)O)C(=O)O)CC2)CCN(CC(=O)[O-])CC1.[225Ac+3] (stereo not drawn) [[^225Ac]Ac-PSMA-617]
patients
  patients with hematotoxicity up to Grade 3/4: about 30%

## CC(C)Cc1ccc(C(C)C(=O)NC(CCN)C(=O)NCCCCC(NC(=O)CN2CCN(CC(=O)[O-])CCN(CC(=O)[O-])CCN(CC(=O)[O-])CC2)C(=O)NCC2CCC(C(=O)NC(Cc3ccc4ccccc4c3)C(=O)NCCCCC(NC(=O)NC(CCC(=O)O)C(=O)O)C(=O)O)CC2)cc1.[225Ac+3] (stereo not drawn) [[^225Ac]Ac-SibuDAB]
BALB/c nude mice; Day 56, 5 kBq
  ALB: 25 ± 2 g/L
  ALP: 93 ± 10 U/L
  BUN: 6.4 ± 1.2 mmol/L
  Brain mass: 403 ± 14 mg
  Kidney mass: 252 ± 15 mg
  Kidney-to-brain mass ratio: 0.63 ± 0.03
  Liver mass: 1079 ± 47 mg
  Liver-to-brain mass ratio: 2.7 ± 0.1
  RBM (relative body mass): 1.13 ± 0.05
  Spleen mass: 113 ± 17 mg
  Spleen-to-brain mass ratio: 0.28 ± 0.04
  TBIL: 4.0 ± 0.9 µmol/L
BALB/c nude mice; Day 56, 10 kBq
  ALB: 26 ± 2 g/L
  ALP: 85 ± 7 U/L
  BUN: 7.3 ± 0.8 mmol/L
  Brain mass: 384 ± 18 mg
  Kidney mass: 260 ± 11 mg
  Kidney-to-brain mass ratio: 0.68 ± 0.04
  Liver mass: 1139 ± 83 mg
  Liver-to-brain mass ratio: 3.0 ± 0.2
  RBM (relative body mass): 1.12 ± 0.03
  Spleen mass: 116 ± 32 mg
  Spleen-to-brain mass ratio: 0.31 ± 0.09
  TBIL: 3.2 ± 0.4 µmol/L
BALB/c nude mice; Day 56, 30 kBq
  ALB: 22 ± 1 g/L
  ALP: 83 ± 2 U/L
  Adverse events in cured mice compared to healthy mice: No obvious adverse events
  BUN: 7.2 ± 0.7 mmol/L
  Brain mass: 408 ± 16 mg
  Kidney mass: 252 ± 24 mg
  Kidney-to-brain mass ratio: 0.62 ± 0.05
  Liver mass: 1096 ± 79 mg
  Liver-to-brain mass ratio: 2.7 ± 0.2
  RBM (relative body mass): 1.11 ± 0.02
  Spleen mass: 127 ± 23 mg
  Spleen-to-brain mass ratio: 0.31 ± 0.07
  TBIL: 4.3 ± 0.5 µmol/L
BALB/c nude mice; cured mice, Day 56, range over groups
  Kidney-to-brain mass ratio: 0.62–0.68
BALB/c nude mice; effectively treated PC-3 PIP tumor-bearing mice
  Tolerability of therapy (body mass increasing over time): well tolerated
[1]
  Day of first endpoint: 18
  Day of last endpoint: 27
  Median Survival: 25 days
  Number of Mice Alive on Day 56: 0/4
  Tumor growth delay: not significantly delay the growth
